Laboratory results from patent US8501713B2, “Drug combinations for the treatment of duchenne muscular dystrophy” (Summit Corporation PLC, priority 2007, dated 2013).

System: Utrophin A promoter linked to a luciferase reporter gene
Test: Luciferase reporter assay (murine H2K cells)
Type: cell-based
Conditions: for activity at 10 µM: Mus musculus, H2K mdx, luciferase level relative to control, H2K/mdx/Utro A reporter cells, compound 10 μM final concentration, read-out: Activity; for Activity: luciferase reporter assay in murine H2K cells, classified relative to control
Outline: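 Immortalized mdx mouse H2K myoblasts stably carrying a ~5 kb utrophin A promoter–luciferase construct, kept at 33° C, 10% CO2. After 24 hrs plating, compound added at 10 μM final for 48 hrs; luciferase light output read after in-situ lysis.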

Row | SMILES | activity at 10 µM [%] | Activity
1 | CCN(CC)c1ccc(-c2nc3cc(NC(=O)C(C)C)ccc3o2)cc1 [Example 78, N-(2-(4-(diethylamino)phenyl)benzo[d]oxazol-5-yl)isobutyramide] | < 200 | 
2 | Nc1ccc2oc(-c3cccc(Cl)c3)nc2c1 [Example 489] |  | ++ (Between 201% and 300% relative to control)
3 | O=C(Nc1cccc(-c2nc3ccccc3[nH]2)c1)c1ccccc1 [Example 464] |  | + (Up to 200% relative to control)
4 | CS(=O)(=O)c1ccc2nc(-c3ccc(Cl)cc3)sc2c1 [Example 406, 2-(4-chlorophenyl)-6-(methylsulfonyl)benzo[d]thiazole] | > 401 | 
5 | Cc1ccccc1C(=O)Nc1nc2ccccc2[nH]1 [Example 648] |  | +++ (Between 301% and 400% relative to control)
6 | O=C(CSc1nc[nH]n1)Nc1ccc(-c2nc3ccccc3s2)cc1 [Example 685] |  | ++ (Between 201% and 300% relative to control)
7 | CCN(CC)c1ccc(-c2nc3cc(NC(=O)c4ccccc4OC)ccc3o2)cc1 [Example 66, N-(2-(4-(diethylamino)phenyl)benzo[d]oxazol-5-yl)-2-methoxybenzamide] | < 200 | 
8 | CN(C)c1ccc(-c2nc3ccccc3[nH]2)cc1 [Example 498] |  | + (Up to 200% relative to control)
9 | CCCC(=O)Nc1ccc2oc(Cc3ccccc3)nc2c1 [Example 227, N-(2-benzylbenzo[d]oxazol-5-yl)butyramide] | < 200 | 
10 | Clc1ccc(-c2nc3cc(-c4ccccc4)ccc3o2)cc1 [Example 162, 2-(4-chlorophenyl)-5-phenylbenzo[d]oxazole] | < 200 | 
11 | O=C(Nc1ccc2oc(-c3ccccc3)nc2c1)c1ccc(Cl)c(Cl)c1 [Example 28, 3,4-dichloro-N-(2-phenylbenzo[d]oxazol-5-yl)benzamide] | < 200 | 
12 | CCN(CC)c1ccc(-c2nc3cc(S(=O)(=O)CC)ccc3o2)cc1 [Example 144, N,N-diethyl-4-(5-(ethylsulfonyl)benzo[d]oxazol-2-yl)aniline] | < 200 | 
13 | COc1ccc(C(=O)Nc2ccc3oc(-c4cccnc4)nc3c2)cc1 [Example 42, 4-methoxy-N-(2-(pyridin-3-yl)benzo[d]oxazol-5-yl)benzamide] | < 200 | 
14 | Cc1ccc(OCc2nc3ccccc3[nH]2)cc1 [Example 531] |  | ++ (Between 201% and 300% relative to control)
15 | CC(=O)Nc1ccc(-c2nc3cc(C)cc(C)c3o2)cc1 [Example 529] |  | ++ (Between 201% and 300% relative to control)
16 | CCCc1nc2cc(N)ccc2o1 [Example 154, 2-propylbenzo[d]oxazol-5-amine] | < 200 | 
17 | CC(=O)Nc1ccc(-c2nc3ccccc3o2)cc1 [Example 589] |  | +++ (Between 301% and 400% relative to control)
18 | CCCc1ccc(-c2nc3ccc(-c4nc5ccc(C(=O)O)cc5o4)cc3o2)cc1 [Example 110, 2′-(4-propylphenyl)-2,6′-bibenzo[d]oxazole-6-carboxylic acid] | < 200 | 
19 | COc1ccc2oc(-c3cccc(N)c3)nc2c1 [Example 630] |  | ++++ (Above 401% relative to control)
20 | Cc1cc2nc(-c3ccc(N)cc3)oc2cc1C [Example 485] |  | ++ (Between 201% and 300% relative to control)
21 | Cc1ccc(-c2nc3cc(C(=O)NC(C)C)ccc3o2)cc1 [Example 181, N-isopropyl-2-p-tolylbenzo[d]oxazole-5-carboxamide] | 301 to 400 | 
22 | CC(C)C(=O)Nc1ccc2oc(-c3ccc(-c4ccccc4)cc3)nc2c1 [Example 411, N-(2-(biphenyl-4-yl)benzo[d]oxazol-5-yl)isobutyramide] | < 200 | 
23 | Nc1ccc2oc(-c3cccc(C(F)(F)F)c3)nc2c1 [Example 174, 2-(3-(trifluoromethyl)phenyl)benzo[d]oxazol-5-amine] | < 200 | 
24 | CC(C)C(=O)Nc1ccc2oc(-c3c(F)cccc3Cl)nc2c1 [Example 341, N-(2-(2-chloro-6-fluorophenyl)benzo[d]oxazol-5-yl)isobutyramide] | < 200 | 
